Assay results reported in patent publication US20090137565A1, “Method for treatment of movement disorders” (The Trustees of Columbia University in the City of New York, priority 2004, published 2009).

System: ethanol-responsive myoclonus (PHM, MD)
Assay: Five-patient open-label trial of sodium oxybate, blinded UMRS (patients #1-3)
Assay type: in vivo, human
Conditions: for UMRS section 2 (myoclonus at rest) score: range 0-128; for UMRS section 1 (patient questionnaire) score: range 0-44; for UMRS section 6 (global disability score): range 0-4; for UMRS section 3 (stimulus sensitivity) score: range 0-17; for UMRS section 5 (functional tests) score: range 0-20, 0 gm score 20; for UMRS section 4 (myoclonus with action) score: range 0-160; for UMRS section 5 (functional tests, modified) score: range 0-28
From the text: Five patients were enrolled in a trial from the Movement Disorders Division of Columbia University Medical Center during the fall of 2004. All patients were afflicted with hyperkinetic movement disorders that responded to ethanol (defined as a noticeable change to the patient), and all were refractory to treatment with conventional medications or could not tolerate them. The Medical Center's Institutional Review Board approved the trial, and written and verbal informed consent were obtained from all patients prior to enrollment.
The dose and timing of all other drugs were kept constant throughout the trial, and patients were not withdrawn from other medications. Patients #1-3 were examined and videotaped using the Unified Myoclonus Rating Scale (UMRS), and patients #4 and 5 were examined and videotaped using the Washington Heights Inwood Tremor Rating Scale (WHIGET) (see Appendix I). Frucht S. J., et al. Adv Neurol 89:361-76 (2002); Louis, E. D., et al. Mov Disord 16:89-93 (2001).
Side effects were defined as either minor or serious (leading to hospitalization) using good clinical practice standards (www.who.int/medicines/library/par/ggcp/GCPGuidePharmatrials), and patients were asked to report side effects at each visit. After initial examination and videotaping, patients were given 1 gm of sodium oxybate by mouth (2 ml of the standard 0.5 gm/ml solution dissolved in 60 ml of water). One hour later, the senior author repeated the examination and videotaping. […] After two weeks taking 2 gm twice daily, the procedure was repeated after a 3 gm office dose, and finally two weeks after receiving 3 gm twice daily, the procedure was repeated after a 4 gm office dose. The maximum dose allowed in the trial was 4 gm twice daily. Patients and the senior author determined at each visit whether or not to proceed to the next dose level, based principally on their ability to tolerate the most recent dose regimen. After deciding on a maximum tolerated dose, patients received a dose in the office 0.5 gm less and the examination was videotaped.
The entire videotape segments and patient-writing samples from each visit were copied, and were blinded to trial order and identifying features, and were randomly ordered for review using a random number table. A movement disorder expert blinded to trial design and dose schedule, scored each videotape. Sub-scores for each visit were calculated as described previously. Frucht S. J., et al. Adv Neurol 89:361-76 (2002). We modified section 5 of the UMRS in which functional performance (pouring water, using a soup spoon) is performed only with the dominant arm (section V). […] This increased the maximum score of section 5 of the UMRS from 20 to 28.

[1] = patient 1, listed as sodium oxybate, monosodium salt
[2] = patient 2, 2.5 gm, 0 gm score 4

In the case of `O=C([O-])CCCO.[Na+]` [GHB, 4-hydroxybutanoic acid monosodium salt], the “UMRS section 2 (myoclonus at rest) score” value (patient 1 1 gm, 0 gm score 3) is reported as 3, the “UMRS section 1 (patient questionnaire) score” value (patient 1 3 gm, 0 gm score 33) is reported as 31 and the “UMRS section 6 (global disability score)” value (patient 1, 1 gm, 0 gm score 4) is reported as 3. For the same molecule, the “UMRS section 3 (stimulus sensitivity) score” value (patient 1, 1 gm, 0 gm score 8) was 3, the “UMRS section 5 (functional tests) score” value (patient 1, 1 gm) was 20 and the “UMRS section 4 (myoclonus with action) score” value (patient 1, 1 gm, 0 gm score 108) was 96. The “UMRS section 6 (global disability score)” value (patient 1, 2 gm, 0 gm score 4) was 3, the “UMRS section 3 (stimulus sensitivity) score” value (patient 1, 2 gm, 0 gm score 8) was 1 and the “UMRS section 5 (functional tests) score” value (patient 1, 2 gm) was 13. For the same molecule, the “UMRS section 2 (myoclonus at rest) score” value (patient 1, 2 gm, 0 gm score 3) was 0, the “UMRS section 4 (myoclonus with action) score” value (patient 1, 2 gm, 0 gm score 108) was 64 and the “UMRS section 6 (global disability score)” value (patient 1, 2.5 gm, 0 gm score 4) was 2. For the same molecule, the “UMRS section 3 (stimulus sensitivity) score” value (patient 1, 2.5 gm, 0 gm score 8) was 2, the “UMRS section 5 (functional tests) score” value (patient 1, 2.5 gm) was 12 and the “UMRS section 2 (myoclonus at rest) score” value (patient 1, 2.5 gm, 0 gm score 3) was 0. The “UMRS section 4 (myoclonus with action) score” value (patient 1, 2.5 gm, 0 gm score 108) was 54, the “UMRS section 2 (myoclonus at rest) score” value (patient 1, 3 gm (asthma exacerbation visit), 0 gm score 3) was 3 and the “UMRS section 6 (global disability score)” value (patient 1, 3 gm, 0 gm score 4) was 3. The “UMRS section 3 (stimulus sensitivity) score” value (patient 1, 3 gm, 0 gm score 8) was 3, the “UMRS section 5 (functional tests) score” value (patient 1, 3 gm) was 15 and the “UMRS section 4 (myoclonus with action) score” value (patient 1, 3 gm, 0 gm score 108) was 86. For the same molecule, the “Rx effect, UMRS section 4 (action myoclonus improved by)” value [1] was 50%, the “Rx effect, UMRS section 5 (functional performance improved by)” value [1] was 40% and the “Rx effect, UMRS section 4” value (patient 2 (table b)) was 88%. The “UMRS section 6 (global disability score)” value (patient 2, 1 gm, 0 gm score 1) was 1, the “UMRS section 3 (stimulus sensitivity) score” value (patient 2, 1 gm, 0 gm score 4) was 2 and the “UMRS section 5 (functional tests, modified) score” value (patient 2, 1 gm, 0 gm score 10) was 8. For the same molecule, the “UMRS section 2 (myoclonus at rest) score” value (patient 2, 1 gm, 0 gm score 4) was 2, the “UMRS section 4 (myoclonus with action) score” value (patient 2, 1 gm, 0 gm score 25) was 29 and the “UMRS section 6 (global disability score)” value (patient 2, 2 gm, 0 gm score 1) was 1. For the same molecule, the “UMRS section 3 (stimulus sensitivity) score” value (patient 2, 2 gm, 0 gm score 4) was 2, the “UMRS section 5 (functional tests, modified) score” value (patient 2, 2 gm, 0 gm score 10) was 4 and the “UMRS section 2 (myoclonus at rest) score” value (patient 2, 2 gm, 0 gm score 4) was 3. For the same molecule, the “UMRS section 4 (myoclonus with action) score” value (patient 2, 2 gm, 0 gm score 25) was 9, the “UMRS section 6 (global disability score)” value (patient 2, 2.5 gm, 0 gm score 1) was 1 and the “UMRS section 3 (stimulus sensitivity) score” value [2] was 0. The “UMRS section 5 (functional tests, modified) score” value (patient 2, 2.5 gm, 0 gm score 10) was 4, the “UMRS section 2 (myoclonus at rest) score” value [2] was 0 and the “UMRS section 4 (myoclonus with action) score” value (patient 2, 2.5 gm, 0 gm score 25) was 3. For the same molecule, the “UMRS section 6 (global disability score)” value (patient 2, 3 gm, 0 gm score 1) was 1, the “UMRS section 3 (stimulus sensitivity) score” value (patient 2, 3 gm, 0 gm score 4) was 0 and the “UMRS section 5 (functional tests, modified) score” value (patient 2, 3 gm, 0 gm score 10) was 5. The “UMRS section 2 (myoclonus at rest) score” value (patient 2, 3 gm, 0 gm score 4) was 0, the “UMRS section 4 (myoclonus with action) score” value (patient 2, 3 gm, 0 gm score 25) was 11 and the “Rx effect, UMRS section 5 (functional performance improved by)” value (patient 2, listed as sodium oxybate, monosodium salt) was 60%. The “Rx effect, UMRS section 4” value (patient 3 (table c)) was 57%, the “UMRS section 6 (global disability score)” value (patient 3, 1 gm, 0 gm score 1) was 1 and the “UMRS section 3 (stimulus sensitivity) score” value (patient 3, 1 gm, 0 gm score 6) was 2. For the same molecule, the “UMRS section 5 (functional tests, modified) score” value (patient 3, 1 gm, 0 gm score 12) was 13, the “UMRS section 2 (myoclonus at rest) score” value (patient 3, 1 gm, 0 gm score 15) was 13 and the “UMRS section 4 (myoclonus with action) score” value (patient 3, 1 gm, 0 gm score 35) was 25. The “UMRS section 6 (global disability score)” value (patient 3, 2 gm, 0 gm score 1) was 1, the “UMRS section 3 (stimulus sensitivity) score” value (patient 3, 2 gm, 0 gm score 6) was 3 and the “UMRS section 5 (functional tests, modified) score” value (patient 3, 2 gm, 0 gm score 12) was 9. The “UMRS section 2 (myoclonus at rest) score” value (patient 3, 2 gm, 0 gm score 15) was 15, the “UMRS section 4 (myoclonus with action) score” value (patient 3, 2 gm, 0 gm score 35) was 26 and the “UMRS section 6 (global disability score)” value (patient 3, 4 gm, 0 gm score 1) was 1. For the same molecule, the “UMRS section 3 (stimulus sensitivity) score” value (patient 3, 4 gm, 0 gm score 6) was 1, the “UMRS section 5 (functional tests, modified) score” value (patient 3, 4 gm, 0 gm score 12) was 12 and the “UMRS section 1 (patient questionnaire) score” value (patient 3, 4 gm, 0 gm score 10) was 5. For the same molecule, the “UMRS section 2 (myoclonus at rest) score” value (patient 3, 4 gm, 0 gm score 15) was 10, the “UMRS section 4 (myoclonus with action) score” value (patient 3, 4 gm, 0 gm score 35) was 15 and the “Rx effect, UMRS section 5 (functional performance improved by)” value (patient 3, listed as sodium oxybate, monosodium salt) was 25%. The Patient self-assessment scores (patient #1) was “unchanged”, the “writing and control of spoon” value (patient #1, one hour after 2.5 gm) was “able to write (although slowly) and their control of the spoon was improved” and the “myoclonic jerks on writing, pouring, using a spoon” value (patient #2, after 3 gm) was “the amplitude and frequency of the jerks was diminished”. For the same molecule, the walking (patient #3, after 4 gm) was “modestly improved”, the Patient self-assessment scores (patients #2 and 3) was “improved” and the “Physician global assessment scores (UMRS part 6)” value (patients #2 and 3, mild (1 out of 4) throughout) was “remained unchanged”. For the same molecule, the “Action myoclonus (section 4) improved by” value (second of patients #1-3 'respectively' in the text (patient #2)) was 57% and the “Action myoclonus (section 4) improved by” value (third of patients #1-3 'respectively' in the text (patient #3)) was 88%.
